The text below walks through data of patent US6506766B1 (Abbott Laboratories, priority 1998, dated 2003).

A word on the Ki: it is the equilibrium dissociation constant of an inhibitor or competing ligand from its target.

Assay [1] concerns the target T1, human glucocorticoid receptor-α [GRX] isoform (Homo sapiens, UniProt P04150).
T1 construct: host or cells: insect SF21 cells (baculovirus)
T1 sequence (P04150 1-777): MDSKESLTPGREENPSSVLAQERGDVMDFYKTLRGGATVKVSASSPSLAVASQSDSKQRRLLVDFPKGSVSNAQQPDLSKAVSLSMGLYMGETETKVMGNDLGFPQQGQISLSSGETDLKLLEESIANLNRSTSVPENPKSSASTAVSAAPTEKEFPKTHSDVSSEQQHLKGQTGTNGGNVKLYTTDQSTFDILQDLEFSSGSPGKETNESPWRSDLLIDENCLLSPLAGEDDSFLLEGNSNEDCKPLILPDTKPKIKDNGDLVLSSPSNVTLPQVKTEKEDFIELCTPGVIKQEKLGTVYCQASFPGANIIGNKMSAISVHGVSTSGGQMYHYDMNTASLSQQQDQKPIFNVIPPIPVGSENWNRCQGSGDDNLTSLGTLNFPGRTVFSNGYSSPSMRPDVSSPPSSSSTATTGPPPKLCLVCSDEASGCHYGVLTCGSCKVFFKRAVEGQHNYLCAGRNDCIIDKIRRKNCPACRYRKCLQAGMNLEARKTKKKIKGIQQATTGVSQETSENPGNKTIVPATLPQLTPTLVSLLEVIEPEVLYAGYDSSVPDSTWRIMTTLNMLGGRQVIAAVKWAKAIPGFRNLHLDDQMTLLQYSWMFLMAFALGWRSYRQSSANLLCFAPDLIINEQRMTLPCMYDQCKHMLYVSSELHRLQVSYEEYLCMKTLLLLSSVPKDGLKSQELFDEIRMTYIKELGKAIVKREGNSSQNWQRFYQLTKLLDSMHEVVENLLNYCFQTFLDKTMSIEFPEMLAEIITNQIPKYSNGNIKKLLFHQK
The assay can be described thus: Radioligand binding with human glucocorticoid receptor cytosol ([3H]-dexamethasone competition). As to conditions: read-out: Ki (nM) GR.

For assay [2], the target named is T2, human progesterone receptor-A [PRA] isoform (Homo sapiens, UniProt P06401).
T2 construct: host or cells: insect SF21 cells (baculovirus)
T2 sequence (P06401 1-769 isoform P06401-2): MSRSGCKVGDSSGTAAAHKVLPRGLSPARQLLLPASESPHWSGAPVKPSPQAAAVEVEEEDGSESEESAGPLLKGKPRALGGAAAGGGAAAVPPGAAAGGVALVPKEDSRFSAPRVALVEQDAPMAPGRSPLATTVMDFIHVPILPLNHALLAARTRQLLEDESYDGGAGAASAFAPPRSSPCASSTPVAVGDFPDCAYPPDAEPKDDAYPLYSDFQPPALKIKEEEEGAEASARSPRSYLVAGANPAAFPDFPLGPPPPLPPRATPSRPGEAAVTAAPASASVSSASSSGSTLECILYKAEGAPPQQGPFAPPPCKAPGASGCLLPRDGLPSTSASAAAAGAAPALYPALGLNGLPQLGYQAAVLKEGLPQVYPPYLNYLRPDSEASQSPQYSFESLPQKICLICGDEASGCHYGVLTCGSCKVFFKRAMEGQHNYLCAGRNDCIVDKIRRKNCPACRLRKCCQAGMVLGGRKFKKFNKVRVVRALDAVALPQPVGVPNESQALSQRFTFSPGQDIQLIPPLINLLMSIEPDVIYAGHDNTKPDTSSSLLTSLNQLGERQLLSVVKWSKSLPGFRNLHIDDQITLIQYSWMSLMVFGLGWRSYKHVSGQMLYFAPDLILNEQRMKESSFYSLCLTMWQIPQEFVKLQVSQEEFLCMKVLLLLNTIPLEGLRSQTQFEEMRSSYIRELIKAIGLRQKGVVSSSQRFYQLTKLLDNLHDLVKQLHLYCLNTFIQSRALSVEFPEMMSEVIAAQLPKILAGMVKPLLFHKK
The assay can be described thus: Radioligand binding with human progesterone receptor cytosol ([3H]-progesterone competition). The conditions noted are these: read-out: Ki (nM) PR.

[3] abbreviates: GRX cytosol expressed in insect SF21 cells, [3H]-Dex ~0.9 nM, 4° C. overnight, Ki by Cheng-Prusoff, KL ~[…].
Where [4] appears, read: PRA cytosol expressed in insect SF21 cells, [3H]Prog ~0.8 nM, 4° C. overnight, Ki by Cheng-Prusoff, KL ~4.5 nM.

Where two headings read alike, the source gives them in different places. Bounds are passed on as bounds.

Turning to `COc1cccc2c1-c1ccc3c(c1C(CC(=O)N(C)C)O2)C(C)=CC(C)(C)N3` (stereo not shown) [Example 63, 2,5-Dihydro-10-methoxy-2,2,4,N,N-pentamethyl-1H-[1]benzopyrano[3,4-f]quinoline-5-acetamide], the Ki in assay [1] (setting [3]) is 511 nM; in assay [2] (setting [4]), no less than 10000 nM.
Taken in the same sequence, the figures for `C=CCC1Oc2ccc(Br)c(OC)c2-c2ccc3c(c21)C(C)=CC(C)(C)N3` (stereo not shown) [Example 300, 10-Methoxy-9-bromo-5-(3-propenyl)-2,2,4-trimethyl-1H-2,5-dihydro-[1]benzopyrano[3,4-f]quinoline] were 5.3 nM and 34.4 nM.
Taken in the same sequence, the figures for `COCC1=C[C@H]([C@@H]2Oc3ccc(O)c(OC)c3-c3ccc4c(c32)C(C)=CC(C)(C)N4)CCC1` (relative stereo) [Example 244, rel-(5S,3′R)-9-Hydroxy-5-[1-methoxymethyl-3-cyclohexenyl]-10-methoxy-2,2,4-trimethyl-2,5-dihydro-1H-[1]benzopyrano[3,4-f]quinoline] were 6.3 nM and 804 nM.
Taken in the same sequence, the figures for “O-[3-(2,5-Dihydro-10-methoxy-2,2,4-trimethyl-1H-[1]benzopyrano[3,4-f]quinolin-5-yl)phenyl]ester [Example 102]” were 17.7 nM and no less than 10000 nM.
With `C#CCOc1cccc2c1-c1ccc3c(c1C(c1ccccc1)O2)C(C)=CC(C)(C)N3` (stereo not shown) [Example 75, 2,5-Dihydro-2,2,4-trimethyl-5-phenyl-10-(2-propynyloxy)-1H-[1]benzopyrano[3,4-f]quinoline], the figures for the Ki in assay [1] (setting [3]) and in assay [2] (setting [4]) were 7.3 nM and 13800 nM, respectively.
The matching figures for `C=CCC1Oc2ccc(OC)c(OC)c2-c2ccc3c(c21)C(C)=CC(C)(C)N3` (stereo not shown) [Example 290, 9,10-Dimethoxy-5-(3-propenyl)-2,2,4-trimethyl-1H-2,5-dihydro-[1]benzopyrano[3,4-f]quinoline]: 12.1 nM and 611 nM.
Taken in the same sequence, the figures for `C=CCNc1cccc2c1-c1ccc3c(c1C(c1cc(Cl)cc(Cl)c1)O2)C(C)=CC(C)(C)N3` (stereo not shown) [Example 74, 5-(3,5-Dichlorophenyl)-2,5-dihydro-2,2,4-trimethyl-N-(2-propenyl)-1H-[1]benzopyrano[3,4-f]quinolin-10-amine] were 11.9 nM and 4880 nM.
Taken in the same sequence, the figures for `COc1cccc2c1-c1ccc3c(c1C(c1cccc(C4=NC(C)(C)CO4)c1)O2)C(C)=CC(C)(C)N3` (stereo not shown) [Example 106] were 62 nM and greater than 10000 nM.
In the case of `C=CCC1Oc2cccc(OC)c2-c2ccc3c(c21)C(C)=CC(C)(C)N3` (single isomer, unassigned; (+)) [Example 37, (+)-2,5-Dihydro-10-methoxy-2,2,4-trimethyl-5-(2-propenyl)-1H-[1]benzopyrano[3,4-f]quinoline], the Ki was 20 nM in assay [1] (setting [3]) and no less than 10000 nM in assay [2] (setting [4]).
For `COCCNc1cc(C)cc(C2Oc3cccc(OC)c3-c3ccc4c(c32)C(C)=CC(C)(C)N4)c1` (stereo not shown) [Example 116, 3-(2,5-Dihydro-10-methoxy-2,2,4-trimethyl-1H-[1]benzopyrano[3,4-f]quinolin-5-yl)-N-(2-methoxyethyl)-5-methylbenamine], the values for the Ki in assay [1] (setting [3]) and in assay [2] (setting [4]) were 7.2 nM and no less than 10000 nM, respectively.
The matching figures for `COc1c(O)ccc2c1-c1ccc3c(c1[C@@H]([C@@H]1C=CCC1)O2)C(C)=CC(C)(C)N3` [Example 286]: 64 nM and 3030 nM.
On to `C=CCC1Oc2ccc(OC(=O)NC3CCCCC3)c(OC)c2-c2ccc3c(c21)C(C)=CC(C)(C)N3` (stereo not shown) [Example 443, 10-Methoxy-9-(cyclohexylaminocarbonyl)-oxy-5-(3-propenyl)-2,2,4-trimethyl-1H-2,5-dihydro-[1]benzopyrano[3,4-f]quinoline], for which the Ki is 63.5 nM in assay [1] and no less than 10000 nM in assay [2].
As to `COc1c(O)ccc2c1-c1ccc3c(c1[C@H]([C@@H]1C=CCCC1)O2)C(C)=CC(C)(C)N3` [Example 272, (−)(5S,3′S)2,5-Dihydro-9-hydroxy-10-methoxy-2,2,4-trimethyl-5-(3-cyclohexenyl)-1H-[1]benzopyrano[3,4-f]quinoline], the Ki in assay [1] (setting [3]) came to 0.39 nM; in assay [2] (setting [4]), 66.4 nM.
The matching figures for `CC1=CC(C)(C)Nc2ccc3c(c21)C(C1CCCC1)Oc1ccc(O)c(Cl)c1-3` (single isomer, unassigned; (-)) [Example 422, (−)2,5-Dihydro-9-hydroxy-10-chloro-2,2,4-trimethyl-5-cyclopentyl-1H-[1]benzopyrano[3,4-f]quinoline]: 0.28 nM and 2.9 nM.
The matching figures for `COc1cccc2c1-c1ccc3c(c1C([C@H]1C=C(CN4CCOCC4)CCC1)O2)C(C)=CC(C)(C)N3` (stereo in doubt) [Example 167, rel (5R, 3′R) 2,5-Dihydro-10-methoxy-5-(1-(N-morpholino)methyl-3-cyclohexenyl)-2,2,4-trimethyl-1H-[1]benzopyrano[3,4-f]quinoline]: 21 nM and no less than 10000 nM.
Take `COc1cccc2c1-c1ccc3c(c1C(C1C=CCC(C)(C)C1)O2)C(C)=CC(C)(C)N3` (mixture of isomers) [Example 133]: the results for the Ki in assay [1] (setting [3]) and in assay [2] (setting [4]) were 3.6 nM and 4870 nM, respectively.
The matching figures for `COc1cccc2c1-c1ccc3c(c1C(CC(O)CO)O2)C(C)=CC(C)(C)N3` (mixture of isomers) [Example 174, 2,5-Dihydro-10-methoxy-5-(1,2-dihydroxy-3-propyl)-2,2,4-trimethyl-1H-[1]benzopyrano[3,4-f]quinoline]: 270 nM and no less than 10000 nM.
The matching figures for `C=CCC1Oc2cccc(OC)c2-c2ccc3c(c21)C(C)=CC1(CCOCC1)N3` (stereo not shown) [Example 359, 2,5-Dihydro-10-methoxy-2,2-[spiro(tetrahydro-4-pyranyl)]-4-methyl-5-ally-1H-[1]benzopyrano[3,4-f]quinoline]: 11.3 nM and 2220 nM.
Turning to `COC(=O)C1=CC(C2Oc3ccc(O)c(OC)c3-c3ccc4c(c32)C(C)=CC(C)(C)N4)CCC1` (single isomer, unassigned) [Example 415], the Ki in assay [1] (setting [3]) amounted to 9.9 nM; in assay [2] (setting [4]), 3740 nM.
The matching figures for `COc1c(O)ccc2c1-c1ccc3c(c1C(c1ccsc1)O2)C(C)=CC(C)(C)N3` (stereo not shown) [Example 444, 2,5-Dihydro-9-hydroxy-10-methoxy-2,2,4-trimethyl-5-(3-thienyl)-1H-[1]benzopyrano[3,4-f]quinoline]: 1.6 nM and 406 nM.
The matching figures for `C=CCCC1Oc2cccc(OC)c2-c2ccc3c(c21)C(C)=CC(C)(C)N3` (stereo not shown) [Example 68, 5-(32-Butenyl)-2,5-dihdro-10-methoxy-2,2,4-trimethyl-1H -1H-[1]benzopyrano[3,4-f]quinoline]: 8 nM and 9050 nM.
For “5-Butyl-2,5-dihydro-9-hydroxy-10-methoxy-2,2,4-trimethyl-1H-[1]benzopyrano[3,4-f]quinoline [Example 251]”, the values for the Ki in assay [1] and in assay [2] were 0.87 nM and 163 nM, respectively.
As for `COc1cccc2c1-c1ccc3c(c1C(c1ccc(OCSC)cc1)O2)C(C)=CC(C)(C)N3` (stereo not shown) [Example 96, 2,5-Dihydro-10-methoxy-2,2,4-trimethyl-5-[[4-(methylthio)methoxy]phenyl]-1H-[1]benzopyrano[3,4-f]quinoline], the Ki in assay [1] (setting [3]) was found to be 10 nM; in assay [2] (setting [4]), 9160 nM.
